From patent US8557848B2, “4,5-ring annulated indole derivatives for treating or preventing of HCV and related viral infections” (Merck Sharp & Dohme Corp., priority 2006, dated 2013)
Like-named read-outs stand apart in the source and are kept apart here.

Assays:
[1] = target: T1, HCV NS5B polymerase (NS5BΔCT21, from HCV-Con 1 isolate, genotype 1b) (Hepatitis C virus genotype 1b, UniProt Q9WMX2); experiment: HCV NS5B Polymerase Inhibition Assay; type: biochemical
T1 construct: A soluble C-terminal 21-amino acid truncated NS5B enzyme form; polyhistidine (C); made in house; host or cells: Escherichia coli
Summary of the method: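 His-tagged NS5BΔCT21 (30 or 150 nM) with 0.03 μM DCoH75 RNA template, 0.25 mM GAU, 0.1 μM ATP/GTP/UTP, 0.026 μM CTP plus [^33P]-CTP, pH 7.3, 2% DMSO; 2 h at 22° C. Incorporated radioactivity counted after filter capture. IC50 from 10-point 2-fold dilutions (top 200 μM to 1 μM) fitted to Hill equation.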

[2] = system: HCV replicon cells (replicon RNA level); experiment: Cell-Based HCV Replicon Assay; details: Hepatitis C virus, 72 h
Summary of the method: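 Replicon cells at 5000/well received 10 serial 2-fold compound dilutions in 0.5% DMSO, 5% FBS, harvested day 3. Replicon RNA quantified by multiplex Taqman RT-PCR on NS5B versus GAPDH; EC50 and EC90 taken at ΔCT = 1 and 3.2 above baseline from sigmoid fits.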

[3] = NS5B polymerase inhibition, [33P]-CTP incorporation, 22° C. for 2 hours, read-out: IC50
[4] = replicon RNA level by real time PCR (Taqman), cells harvested on day 3, read-out: EC50

Structure (SMILES) | IC50 [1, 3] | EC50 [2, 4] | IC50 [1] | EC50 [2]
CN(C)S(=O)(=O)NC(=O)c1c(-c2ccc[nH]c2=O)c2c3occc3c(F)cc2n1Cc1cc2ccccc2nc1Cl [Compound 215] | < 0.025 µM | < 0.5 µM | – | –
CC(C)S(=O)(=O)NC(=O)c1c(-c2ccc[nH]c2=O)c2c3c(c(F)cc2n1Cc1cc2ccccc2nc1Cl)CCO3 [Compound 216] | < 0.025 µM | < 0.5 µM | – | –
CS(=O)(=O)NC(=O)c1c(-c2ccc[nH]c2=O)c2c3occc3c(F)cc2n1Cc1cc2cccc(Br)c2o1 [Compound 218] | < 0.025 µM | > 1.5 µM | – | –
CC(C)(C)C(=O)OCn1cccc(-c2c(C(=O)O)n(Cc3cc4ccccc4nc3Cl)c3cc(F)c4ccoc4c23)c1=O [Compound 219] | > 0.1 µM | < 0.5 µM | – | –
O=C(NC1CC1)c1ccc(F)c(Cn2c(C(=O)NS(=O)(=O)C3CC3)c(-c3ccc[nH]c3=O)c3c4occc4c(F)cc32)c1 [Compound 221] | < 0.025 µM | > 1.5 µM | – | –
O=C(NS(=O)(=O)C1CC1)c1c(-c2ccc[nH]c2=O)c2c3occc3c(F)cc2n1Cc1ccc2[nH]c(C(F)(F)F)nc2c1 [Compound 222] | < 0.025 µM | < 0.5 µM | – | –
Nc1ccccc1S(=O)(=O)NC(=O)c1c(-c2ccc[nH]c2=O)c2c3occc3c(F)cc2n1Cc1cc2ccccc2nc1Cl [Compound 223] | < 0.025 µM | < 0.5 µM | – | –
O=C(NS(=O)(=O)C1CC1)c1ccc(F)c(Cn2c(C(=O)NS(=O)(=O)C3CC3)c(-c3ccc[nH]c3=O)c3c4occc4c(F)cc32)c1 [Compound 225] | < 0.025 µM | 0.5 to 1.5 µM | – | –
COc1cc(Cn2c(C(=O)OCOC(=O)C(C)(C)C)c(-c3cccn(COC(=O)C(C)(C)C)c3=O)c3c4occc4c(F)cc32)c(F)cn1 [Compound 226] | > 0.1 µM | < 0.5 µM | – | –
CC(C)(C)OC(=O)N(C(=O)OC(C)(C)C)c1cc(Cn2c(C(=O)NS(=O)(=O)C3CC3)c(-c3ccc[nH]c3=O)c3c4occc4c(F)cc32)c(F)cn1 [Compound 227] | > 0.1 µM | < 0.5 µM | – | –
CC(C)(C)C(=O)OCOC(=O)c1c(-c2cccn(COC(=O)C(C)(C)C)c2=O)c2c3occc3c(F)cc2n1Cc1cc(=O)n(COC(=O)C(C)(C)C)cc1F [Compound 228] | – | < 0.5 µM | > 0.1 µM | –
CC1(C)COc2c1ccc1c2c(-c2ccc[nH]c2=O)c(C(=O)O)n1Cc1cc2ccccc2nc1Cl [Compound 231] | < 0.025 µM | – | – | < 0.5 µM
